Reference: PubChem BioAssay (NCI)
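Briefly, cells in 96-well plates were exposed to five compound concentrations for 48 h, and endpoints were estimated by linear interpolation. The concentration for full growth arrest is given as TGI.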

What was measured:
Assay in all cases: NCI anticancer screen, dose series, 48 h
[1] = tested on: RXF 393 renal
[2] = tested on: OVCAR-4 ovarian
[3] = tested on: SNB-19 CNS
[4] = tested on: SR leukemia
[5] = tested on: SN12C renal
[6] = tested on: SK-MEL-28 melanoma
[7] = tested on: IGROV1 ovarian
[8] = tested on: MDA-N
[9] = tested on: MDA-MB-435
[10] = tested on: PC-3 prostate
[11] = tested on: T-47D breast
[12] = tested on: UACC-257 melanoma
[13] = tested on: K-562 leukemia
[14] = tested on: A498 renal

SMILES | TGI [1] [µM] | TGI [2] [µM] | TGI [3] [µM] | TGI [4] [µM] | TGI [5] [µM] | TGI [6] [µM] | TGI [7] [µM] | TGI [8] [µM] | TGI [9] [µM] | TGI [10] [µM] | TGI [11] [µM] | TGI [12] [µM] | TGI [13] [µM] | TGI [14] [µM]
CC(C)(C)S(=O)OC12CC3CC(CC(C3)C1)C2 (centres undefined) | > 100 | > 100 | > 100 | > 100 | > 100 | > 100 | > 100 |  |  |  |  |  |  | 
CCc1cc2c(oc3cc(C)ccc32)c(=O)n1C | > 10 | > 10 | > 10 | > 10 | > 10 |  | > 10 | > 10 | > 10 | > 10 | > 10 | > 10 | > 10 | 
N#Cc1c(N2CCOCC2)[nH]c(=O)c(C(c2c(Cl)cccc2Cl)c2c(O)c(C#N)c(N3CCOCC3)[nH]c2=O)c1O | 35.5 | 32.9 | 29.6 | 26.3 | 34.5 | 32.9 | 35.3 |  | 30.2 | 37.7 |  | 34 | 23.2 | > 100
COc1ccc2c(c1)CCC(OS(=O)(=O)CC13CCC(CC1=O)C3(C)C)C2=O (centres undefined) |  | > 100 | > 100 | 73.3 | 35.2 | > 100 |  |  |  |  |  | > 100 | > 100 | 39.1
CN(C)Cc1cc(C(C)(C)C)cc(C2CCCCC2)c1O | 26.4 | 24.4 | 25.6 | 25.6 | 29.9 | 26.3 | 34.8 |  | 36.6 | 26.4 | 21.6 | 21.8 | 24.5 | 
N#Cc1sc2c(c1O)c(=O)n(-c1ccccc1)c(=S)n2-c1ccccc1 | > 100 | > 100 | > 100 | > 100 | > 100 | > 100 | > 100 | > 100 | > 100 |  | > 100 | > 100 | > 100 | 
O=C1NC2(CCN(CCCC3(c4ccc(F)cc4)OCCO3)CC2)Oc2ccccc21 | > 100 | > 100 | > 100 | > 100 | > 100 | > 100 | > 100 |  | > 100 |  | > 100 | > 100 | > 100 | 80.5
CC(=O)ON(C(C)=O)c1ccc(-c2nc3ccccc3s2)cc1C |  | > 100 | > 100 | > 100 | > 100 | > 100 | > 100 | > 100 | > 100 | > 100 |  | > 100 | > 100 | 16.9
O=C(CCN1CCOCC1)C(=Cc1ccccc1)C(=O)CCN1CCOCC1 | 3.14 | 19.9 | 28.3 |  | 7.45 | 5.64 | 20.3 |  |  |  |  | 3.5 | 2.15 | 31.4
COc1ccc(N=[N+]([O-])c2ccc(OC)cc2)cc1 | > 100 | > 100 | > 100 |  |  | > 100 | > 100 | > 100 | > 100 | > 100 |  | > 100 | > 100 | > 100
C[N+](C)=c1nc(N2CCc3ccccc3C2)ss1 | > 100 | > 100 | > 100 | > 100 | > 100 | > 100 | > 100 |  |  |  |  | > 100 | > 100 | > 100
c1ccc2cc3c(cc2c1)nc1ccccn13 | > 100 |  | > 100 | > 100 | > 100 | > 100 | > 100 | > 100 | > 100 | > 100 | > 100 | > 100 | > 100 | 
CCC(=O)C(C(C)/C=C/CCSc1ccccc1)C(O)CCCCCC(=O)OC (centres undefined) | > 100 | > 100 | > 100 | > 100 | > 100 | > 100 | > 100 | > 100 | > 100 | > 100 |  | > 100 | > 100 | 
CC(=O)OCC(Br)C1(C)CCC(C(C)(C)Br)O1 (centres undefined) | > 100 | 72 | > 100 | > 100 | > 100 | > 100 | > 100 | > 100 | > 100 | > 100 |  | 45.2 | > 100 | > 100
